In PubChem BioAssay (NCI):
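Cells were grown in 96-well plates and exposed to each compound for 48 hours at five concentrations; endpoints were interpolated linearly between bracketing concentrations, or set to the highest concentration if not reached. GI50 marks 50% less growth. TGI denotes the concentration required for complete inhibition of growth.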

Tests used:
Experiment in all cases: NCI tumour cell line growth inhibition, 48 h
SW-620 colon = tested on: SW-620 colon
HOP-92 NSCLC = tested on: HOP-92 NSCLC
KM12 colon = tested on: KM12 colon
HS 578T breast = tested on: HS 578T breast
NCI-H226 lung = tested on: NCI-H226 lung
DU-145 prostate = tested on: DU-145 prostate
SK-MEL-2 melanoma = tested on: SK-MEL-2 melanoma
OVCAR-5 ovarian = tested on: OVCAR-5 ovarian
OVCAR-8 ovarian = tested on: OVCAR-8 ovarian
SK-MEL-28 melanoma = tested on: SK-MEL-28 melanoma
SF-268 CNS = tested on: SF-268 CNS
OVCAR-3 ovarian = tested on: OVCAR-3 ovarian
LOX IMVI melanoma = tested on: LOX IMVI melanoma
HOP-62 NSCLC = tested on: HOP-62 NSCLC
SK-MEL-5 melanoma = tested on: SK-MEL-5 melanoma
CCRF-CEM leukemia = tested on: CCRF-CEM leukemia
PC-3 prostate = tested on: PC-3 prostate
UACC-257 melanoma = tested on: UACC-257 melanoma
M14 melanoma = tested on: M14 melanoma
IGROV1 ovarian = tested on: IGROV1 ovarian
MCF7 breast = tested on: MCF7 breast
COLO 205 colon = tested on: COLO 205 colon
NCI-H460 lung = tested on: NCI-H460 lung
SN12C renal = tested on: SN12C renal
ACHN renal = tested on: ACHN renal
BT-549 breast = tested on: BT-549 breast
NCI-H522 lung = tested on: NCI-H522 lung
A549 NSCLC = tested on: A549 NSCLC
MALME-3M melanoma = tested on: MALME-3M melanoma
SF-539 CNS = tested on: SF-539 CNS
HL-60(TB) leukemia = tested on: HL-60(TB) leukemia
RPMI-8226 leukemia = tested on: RPMI-8226 leukemia
NCI-H23 lung = tested on: NCI-H23 lung
A498 renal = tested on: A498 renal
HCT-116 colon = tested on: HCT-116 colon
U251 CNS = tested on: U251 CNS
RXF 393 renal = tested on: RXF 393 renal
EKVX NSCLC = tested on: EKVX NSCLC
T-47D breast = tested on: T-47D breast
HT29 colon = tested on: HT29 colon
UACC-62 melanoma = tested on: UACC-62 melanoma
UO-31 renal = tested on: UO-31 renal
CAKI-1 renal = tested on: CAKI-1 renal
K-562 leukemia = tested on: K-562 leukemia
TK-10 renal = tested on: TK-10 renal
NCI/ADR-RES ovarian = tested on: NCI/ADR-RES ovarian
MOLT-4 leukemia = tested on: MOLT-4 leukemia
HCT-15 colon = tested on: HCT-15 colon
SNB-19 CNS = tested on: SNB-19 CNS
SNB-75 CNS = tested on: SNB-75 CNS
MDA-MB-231 breast = tested on: MDA-MB-231 breast
MDA-MB-435 = tested on: MDA-MB-435
SF-295 CNS = tested on: SF-295 CNS
HCC-2998 colon = tested on: HCC-2998 colon

## CC1OC(O[C@H]2/C=C/C=C/C=C/C=C/C=C/C=C/C=C/[C@H](C)[C@@H](O)[C@@H](C)[C@H](C)OC(=O)CC(O)CC(O)CCC(O)C(O)CC(O)C[C@]3(O)C[C@H](O)C(C(=O)O)C(C2)O3)C(O)[C@H](N)C1O (some centres not stated)
SW-620 colon
  GI50: 2.58 µM
  TGI: 7.73 µM
HOP-92 NSCLC
  GI50: 3.16 µM
  TGI: 15.6 µM
KM12 colon
  GI50: 6.16 µM
  TGI: 20.2 µM
HS 578T breast
  GI50: 2.39 µM
  TGI: 8.25 µM
NCI-H226 lung
  GI50: 2 µM
  TGI: 4.31 µM
DU-145 prostate
  GI50: 2.8 µM
  TGI: 7.22 µM
SK-MEL-2 melanoma
  GI50: 3.9 µM
  TGI: 12 µM
OVCAR-5 ovarian
  GI50: 3.88 µM
  TGI: 16.8 µM
OVCAR-8 ovarian
  GI50: 2.9 µM
  TGI: 9.86 µM
SK-MEL-28 melanoma
  GI50: 2.07 µM
  TGI: 3.98 µM
SF-268 CNS
  GI50: 2.06 µM
  TGI: 4.29 µM
OVCAR-3 ovarian
  GI50: 2.39 µM
  TGI: 5.35 µM
LOX IMVI melanoma
  GI50: 1.79 µM
  TGI: 3.6 µM
HOP-62 NSCLC
  GI50: 1.57 µM
  TGI: 3.11 µM
SK-MEL-5 melanoma
  GI50: 3.51 µM
  TGI: 12.8 µM
CCRF-CEM leukemia
  TGI: > 100 µM
PC-3 prostate
  GI50: 1.81 µM
  TGI: 3.92 µM
UACC-257 melanoma
  GI50: 1.75 µM
  TGI: 3.4 µM
M14 melanoma
  GI50: 2.57 µM
  TGI: 5.96 µM
IGROV1 ovarian
  GI50: 2.31 µM
  TGI: 4.73 µM
MCF7 breast
  GI50: 5.02 µM
  TGI: 19.7 µM
COLO 205 colon
  GI50: 4.19 µM
  TGI: 17.2 µM
NCI-H460 lung
  GI50: 2.14 µM
  TGI: 4.84 µM
SN12C renal
  GI50: 1.58 µM
  TGI: 2.99 µM
ACHN renal
  GI50: 1.68 µM
  TGI: 3.18 µM
BT-549 breast
  GI50: 13.9 µM
  TGI: 30.4 µM
NCI-H522 lung
  GI50: 2.58 µM
  TGI: 6.02 µM
A549 NSCLC
  GI50: 1.67 µM
  TGI: 3.11 µM
MALME-3M melanoma
  GI50: 1.88 µM
  TGI: 3.68 µM
SF-539 CNS
  GI50: 2.92 µM
  TGI: 11.6 µM
HL-60(TB) leukemia
  GI50: 3.79 µM
  TGI: 10.9 µM
RPMI-8226 leukemia
  GI50: 16.6 µM
  TGI: 59 µM
NCI-H23 lung
  GI50: 2.11 µM
  TGI: 5.36 µM
A498 renal
  GI50: 12 µM
  TGI: 25.9 µM
HCT-116 colon
  GI50: 1.99 µM
  TGI: 4.05 µM
U251 CNS
  GI50: 1.88 µM
  TGI: 3.79 µM
RXF 393 renal
  GI50: 1.84 µM
  TGI: 3.95 µM
EKVX NSCLC
  GI50: 3.4 µM
  TGI: 11 µM
T-47D breast
  GI50: 16.4 µM
  TGI: 90.3 µM
HT29 colon
  GI50: 4.3 µM
  TGI: 14.7 µM
UACC-62 melanoma
  GI50: 2.78 µM
  TGI: 7.62 µM
UO-31 renal
  GI50: 1.4 µM
  TGI: 2.76 µM
CAKI-1 renal
  GI50: 3.16 µM
  TGI: 11.7 µM
K-562 leukemia
  GI50: 30.1 µM
  TGI: > 100 µM
TK-10 renal
  GI50: 2.66 µM
  TGI: 5.31 µM
NCI/ADR-RES ovarian
  GI50: 2.1 µM
  TGI: 5.16 µM
MOLT-4 leukemia
  GI50: 2.9 µM
  TGI: 6.02 µM
HCT-15 colon
  GI50: 12 µM
  TGI: 54 µM
SNB-19 CNS
  GI50: 2.57 µM
  TGI: 6.52 µM
SNB-75 CNS
  GI50: 25.3 µM
  TGI: > 100 µM
MDA-MB-231 breast
  GI50: 4.24 µM
  TGI: 15.7 µM
MDA-MB-435
  GI50: 2.01 µM
  TGI: 3.69 µM
SF-295 CNS
  GI50: 18.6 µM
  TGI: 38 µM
HCC-2998 colon
  GI50: 5.36 µM
  TGI: 18.7 µM
